Patent US4401604A, “Process for preparing thiosulfenamide derivatives of N-phosphonomethylglycine triesters” (Monsanto Company, priority 1981, dated 1983)

Assays:
Type in all cases: in vivo
Canada Thistle [1] = assay: Pre-emergent herbicidal activity; settings: Table III; 11.2 kg/h; 2 WAT
Text: (§1) A good grade of top soil is placed in aluminum pans and compacted to a depth of 0.95 to 1.27 cm. from the top of each pan. A predetermined number of seeds or vegetative propagules of each of several plant species are placed on top of the soil in each pan and then pressed down. Herbicidal compositions prepared as in the previous example are applied by admixture with or incorporation in the top layer of soil.
(§2) In this method, the soil required to cover the seeds and propagules is weighed and admixed with a herbicidal composition containing a known amount of the active ingredient (compound of this invention). The pans are then filled with the admixture and leveled. Watering is carried out by permitting the soil in the pans to absorb moisture through apertures in the pan bottoms. The seed and propagule containing pans are placed on a wet sand bench and maintained for approximately two weeks under ordinary conditions of sunlight and watering. At the end of this period, the number of emerged plants of each species is noted and compared to an untreated control.
(§3) The pre-emergent herbicidal activity index used below is based upon average percent control of each species as follows:
(§4) Plant species in the table are identified by the same code letters used in the previous example.

Smartweed [2] = assay: Pre-emergent herbicidal activity; settings: Table III; 11.2 kg/h; 2 WAT
Text: as §1, §2, §3, §4

Quackgrass [3] = assay: Pre-emergent herbicidal activity; settings: Table III; 11.2 kg/h; 2 WAT
Text: as §1, §2, §3, §4

Johnsongrass [4] = assay: Pre-emergent herbicidal activity; settings: Table III; 11.2 kg/h; 2 WAT
Text: as §1, §2, §3, §4

Lambsquarters [5] = assay: Pre-emergent herbicidal activity; settings: Table III; 11.2 kg/h; 2 WAT
Text: as §1, §2, §3, §4

Yellow Nutsedge [6] = assay: Pre-emergent herbicidal activity; settings: Table III; 11.2 kg/h; 2 WAT
Text: as §1, §2, §3, §4

Velvetleaf [7] = assay: Pre-emergent herbicidal activity; settings: Table III; 11.2 kg/h; 2 WAT
Text: as §1, §2, §3, §4

Downy Brome = assay: Pre-emergent herbicidal activity; settings: Table III; 11.2 kg/h; 2 WAT
Text: as §1, §2, §3, §4

Barnyardgrass = assay: Pre-emergent herbicidal activity; settings: Table III; 11.2 kg/h; 2 WAT
Text: as §1, §2, §3, §4

Cocklebur = assay: Pre-emergent herbicidal activity; settings: Table III; 11.2 kg/h; 2 WAT
Text: as §1, §2, §3, §4

Morningglory = assay: Pre-emergent herbicidal activity; settings: Table III; 11.2 kg/h; 2 WAT
Text: as §1, §2, §3, §4

Rice = assay: Post-emergence herbicidal activity, greenhouse; settings: Table II
Text: (§5) A good grade of top soil is placed in aluminum pans having holes in the bottom and compacted to a depth of 0.95 to 1.27 cm. from the top of the pan. A predetermined number of seeds of each of several dicotyledonous and monocotyledonous annual plant species and/or vegetative propagules for the perennial plant species are placed on the soil and pressed into the soil surface. The seeds and/or vegetative propagules are covered with soil and leveled. The pans are then placed on a sand bench in the greenhouse and watered from below as needed. After the plants reach the desired age (two to three weeks), each pan except for the control pans is removed individually to a spraying chamber and sprayed by means of an atomizer operating at a positive air pressure of approximately 1.46 kg/cm^2 absolute. The atomizer contains 6 ml. of a solution or suspension of the chemical. In that 6 ml., is an amount of a cyclohexanone emulsifying agent mixture to give a spray solution or suspension which contains about 0.4% by weight of the emulsifier. The spray solution or suspension contains a sufficient amount of the candidate chemical in order to give application rates corresponding to those set forth in the tables. The spray solution is prepared by taking an aliquot of a 1.0% by weight stock solution or suspension of the candidate chemical in an organic solvent such as acetone or tetrahydrofuran or in water. The emulsifying agent employed is a mixture comprising 35 weight percent butylamine dodecylbenzene sulfonate and 65 weight percent of a tall oil ethylene oxide condensate having about 11 moles of ethylene oxide per mole of tall oil. The pans are returned to the greenhouse and watered as before and the injury to the plants as compared to the control is observed at approximately two and four weeks as indicated in the tables under WAT and the results recorded. In some instances, the two-week observations are omitted.
(§6) The post-emergence herbicidal activity index used in Table I is as follows:
(§7) The plant species utilized in these tests are identified by letter in accordance with the following legend: […]

Canada Thistle [8] = assay: Post-emergence herbicidal activity, greenhouse; settings: Table I, 4 WAT
Text: as §5, §6, §7

Smartweed [9] = assay: Post-emergence herbicidal activity, greenhouse
Text: as §5, §6, §7

Quackgrass [10] = assay: Post-emergence herbicidal activity, greenhouse; settings: Table I, 4 WAT
Text: as §5, §6, §7

Johnsongrass [11] = assay: Post-emergence herbicidal activity, greenhouse; settings: Table I, 4 WAT
Text: as §5, §6, §7

Lambsquarters [12] = assay: Post-emergence herbicidal activity, greenhouse
Text: as §5, §6, §7

Yellow Nutsedge [13] = assay: Post-emergence herbicidal activity, greenhouse; settings: Table I, 4 WAT
Text: as §5, §6, §7

Panicum Spp = assay: Post-emergence herbicidal activity, greenhouse; settings: Table II
Text: as §5, §6, §7

Velvetleaf [14] = assay: Post-emergence herbicidal activity, greenhouse
Text: as §5, §6, §7

With COC(=O)CN(CP(=O)(Oc1ccccc1OC)Oc1ccccc1OC)SSc1cccc(C(F)(F)F)c1 [V] the “pre-emergent herbicidal activity index” value (Canada Thistle [1]) was 2 (50-74% control), the “pre-emergent herbicidal activity index” value (Smartweed [2]) was 1 (25-49% control) and the “pre-emergent herbicidal activity index” value (Quackgrass [3]) was 1 (25-49% control). The “pre-emergent herbicidal activity index” value (Johnsongrass [4]) was 3 (75-100% control), the “pre-emergent herbicidal activity index” value (Lambsquarters [5]) was 0 (0-24% control) and the “pre-emergent herbicidal activity index” value (Yellow Nutsedge [6]) was 0 (0-24% control). The “pre-emergent herbicidal activity index” value (Velvetleaf [7]) was 0 (0-24% control), the “pre-emergent herbicidal activity index” value (Downy Brome) was 2 (50-74% control) and the “pre-emergent herbicidal activity index” value (Barnyardgrass) was 3 (75-100% control). The “pre-emergent herbicidal activity index” value (Cocklebur) was 0 (0-24% control), the “pre-emergent herbicidal activity index” value (Morningglory) was 1 (25-49% control) and the “post-emergence herbicidal activity index” value (Rice; 0.28 kg/h, 2 WAT) was 0 (0- 24% control). The “post-emergence herbicidal activity index” value (Rice; 1.12 kg/h, 4 WAT) was 0 (0- 24% control), the “post-emergence herbicidal activity index” value (Rice; 5.6 kg/h, 4 WAT) was 1 (25-49% control) and the “post-emergence herbicidal activity index” value (Canada Thistle [8]; 5.6 kg/h) was 0 (0- 24% control). For the same compound, the “post-emergence herbicidal activity index” value (Canada Thistle [8]; 11.2 kg/h) was 1 (25-49% control), the “post-emergence herbicidal activity index” value (Smartweed [9]; Table I, 5.6 kg/h, 4 WAT) was 1 (25-49% control) and the “post-emergence herbicidal activity index” value (Smartweed [9]; Table I, 11.2 kg/h, 4 WAT) was 2 (50-74% control). For the same compound, the “post-emergence herbicidal activity index” value (Smartweed [9]; Table II, 0.28 kg/h, 2 WAT) was 0 (0- 24% control), the “post-emergence herbicidal activity index” value (Smartweed [9]; Table II, 1.12 kg/h, 4 WAT) was 3 (75-99% control) and the “post-emergence herbicidal activity index” value (Smartweed [9]; Table II, 5.6 kg/h, 4 WAT) was 2 (50-74% control). The “post-emergence herbicidal activity index” value (Quackgrass [10]; 5.6 kg/h) was 1 (25-49% control), the “post-emergence herbicidal activity index” value (Quackgrass [10]; 11.2 kg/h) was 4 (100% control) and the “post-emergence herbicidal activity index” value (Johnsongrass [11]; 5.6 kg/h) was 1 (25-49% control). For the same compound, the “post-emergence herbicidal activity index” value (Johnsongrass [11]; 11.2 kg/h) was 2 (50-74% control), the “post-emergence herbicidal activity index” value (Lambsquarters [12]; Table I, 5.6 kg/h, 4 WAT) was 3 (75-99% control) and the “post-emergence herbicidal activity index” value (Lambsquarters [12]; Table I, 11.2 kg/h, 4 WAT) was 3 (75-99% control). For the same compound, the “post-emergence herbicidal activity index” value (Lambsquarters [12]; Table II, 0.28 kg/h, 2 WAT) was 0 (0- 24% control), the “post-emergence herbicidal activity index” value (Lambsquarters [12]; Table II, 1.12 kg/h, 4 WAT) was 3 (75-99% control) and the “post-emergence herbicidal activity index” value (Lambsquarters [12]; Table II, 5.6 kg/h, 4 WAT) was 3 (75-99% control). The “post-emergence herbicidal activity index” value (Yellow Nutsedge [13]; 5.6 kg/h) was 1 (25-49% control), the “post-emergence herbicidal activity index” value (Yellow Nutsedge [13]; 11.2 kg/h) was 1 (25-49% control) and the “post-emergence herbicidal activity index” value (Panicum Spp; 0.28 kg/h, 2 WAT) was 0 (0- 24% control). For the same compound, the “post-emergence herbicidal activity index” value (Panicum Spp; 1.12 kg/h, 4 WAT) was 0 (0- 24% control), the “post-emergence herbicidal activity index” value (Panicum Spp; 5.6 kg/h, 4 WAT) was 1 (25-49% control) and the “post-emergence herbicidal activity index” value (Velvetleaf [14]; Table I, 5.6 kg/h, 4 WAT) was 1 (25-49% control). For the same compound, the “post-emergence herbicidal activity index” value (Velvetleaf [14]; Table I, 11.2 kg/h, 4 WAT) was 0 (0- 24% control), the “post-emergence herbicidal activity index” value (Velvetleaf [14]; Table II, 0.28 kg/h, 2 WAT) was 0 (0- 24% control) and the “post-emergence herbicidal activity index” value (Velvetleaf [14]; Table II, 1.12 kg/h, 4 WAT) was 0 (0- 24% control). For the same compound, the “post-emergence herbicidal activity index” value (Velvetleaf [14]; Table II, 5.6 kg/h, 4 WAT) was 1 (25-49% control).
